Tests used:
IL-17A/A = molecular target: T1, IL-17A/A (Homo sapiens, UniProt Q16552); test: IL-17A/A HEK-Blue cell assay (SEAP reporter); assay type: cell-based; settings: HEK-Blue IL-17A reporter cells, IL17A/A 5 ng/mL, 20 hours, SEAP read at A630; read-out: HEK-Blue IL17AA (IC50 for IL-17A/A inhibition)
T1 construct: purchased Genscript Z03228
T1 sequence (Q16552 24-155): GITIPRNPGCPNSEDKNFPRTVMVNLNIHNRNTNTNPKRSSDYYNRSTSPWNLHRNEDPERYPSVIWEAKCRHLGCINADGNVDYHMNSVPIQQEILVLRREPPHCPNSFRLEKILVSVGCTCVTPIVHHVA

IL-17A/F = molecular target: T2, IL-17A/F (Homo sapiens, UniProt Q16552+Q96PD4); test: IL-17A/F HEK-Blue cell assay (SEAP reporter); assay type: cell-based; settings: HEK-Blue IL-17A reporter cells, IL17A/F 5 ng/mL, 20 hours, SEAP read at A630; read-out: HEK-Blue IL17AF (IC50 for IL-17A/F inhibition)
T2 construct: purchased R&D Systems
T2 sequence (Q16552 24-155): T1 sequence (Q16552 24-155)
T2 sequence (Q96PD4 31-163): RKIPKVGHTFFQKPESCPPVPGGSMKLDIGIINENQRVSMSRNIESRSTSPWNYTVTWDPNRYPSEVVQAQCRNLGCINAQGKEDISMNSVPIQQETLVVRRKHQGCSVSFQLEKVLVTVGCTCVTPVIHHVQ

IC50 (IL-17A/A) [µM] | IC50 (IL-17A/F) [µM] | SMILES
< 0.1 | > 1 | CCn1nccc1C(=O)N[C@H](c1cn2nc(C[C@H]3C[C@@H](C(F)(F)F)CNC3=O)c(C3CCCN(CCOC)C3)nc2n1)C1CCC(F)(F)CC1 (stereo partly drawn) [Compound 226, N-((1S)-(4,4-difluorocyclohexyl)(3-(1-(2-methoxyethyl)piperidin-3-yl)-2-(((3R,5R)-2-oxo-5-(trifluoromethyl)piperidin-3-yl)methyl)imidazo[1,2-b][1,2,4]triazin-6-yl)methyl)-1-ethyl-1H-pyrazole-5-carboxamide]
< 0.1 | > 1 | Cn1ncnc1C(=O)N[C@H](c1cn2nc(C[C@H]3C[C@@H](C(F)(F)F)CNC3=O)c(C3CCOCC3)nc2n1)C1CCC(F)(F)CC1 [Compound 228]
0.1 to 1 | > 1 | CCn1nccc1C(=O)N[C@H](c1cn2nc(C[C@H]3C[C@@H](C(F)(F)F)CNC3=O)c(C3CCCCN3C)nc2n1)C1CCC(F)(F)CC1 (stereo partly shown) [Compound 230]
< 0.1 | 0.1 to 1 | CCn1nccc1C(=O)N[C@H](c1cn2nc(C[C@H]3C[C@@H](C(F)(F)F)CNC3=O)c(C3CCS(=O)(=O)CC3)nc2n1)C1CCC(F)(F)CC1 [Compound 234, N—((S)-(4,4-difluorocyclohexyl)(3-(1,1-dioxidotetrahydro-2H-thiopyran-4-yl)-2-(((3R,5R)-2-oxo-5-(trifluoromethyl)piperidin-3-yl)methyl)imidazo[1,2-b][1,2,4]triazin-6-yl)methyl)-1-ethyl-1H-pyrazole-5-carboxamide]
< 0.1 | 0.1 to 1 | CCn1nccc1C(=O)N[C@H](c1cn2nc(C[C@H]3C[C@@H](C(F)(F)F)CNC3=O)c(N3CCOC[C@H]3C)nc2n1)C1CCC(F)(F)CC1 [Compound 236]
< 0.1 | 0.1 to 1 | CCn1nccc1C(=O)N[C@H](c1cn2nc(C[C@H]3C[C@@H](C(F)(F)F)CNC3=O)c(N(C)CCOC)nc2n1)C1CCC(F)(F)CC1 [Compound 237, N—((S)-(4,4-difluorocyclohexyl)(3-((2-methoxyethyl)(methyl)amino)-2-(((3R,5R)-2-oxo-5-(trifluoromethyl)piperidin-3-yl)methyl)imidazo[1,2-b][1,2,4]triazin-6-yl)methyl)-1-ethyl-1H-pyrazole-5-carboxamide]
0.1 to 1 | 0.1 to 1 | CCn1nccc1C(=O)N[C@H](c1cn2nc(C[C@H]3C[C@@H](C(F)(F)F)CNC3=O)c(N3CCN(C(=O)OC(C)(C)C)[C@@H](C)C3)nc2n1)C1CCC(F)(F)CC1 [Compound 238, tert-butyl (S)-4-(6-((S)-(4,4-difluorocyclohexyl)(1-ethyl-1H-pyrazole-5-carboxamido)methyl)-2-(((3R,5R)-2-oxo-5-(trifluoromethyl)piperidin-3-yl)methyl)imidazo[1,2-b][1,2,4]triazin-3-yl)-2-methylpiperazine-1-carboxylate]
0.1 to 1 | > 1 | CCn1nccc1C(=O)N[C@H](c1cn2nc(C[C@H]3C[C@@H](C(F)(F)F)CNC3=O)c(N3CCN[C@@H](C)C3)nc2n1)C1CCC(F)(F)CC1 [Compound 239, N—((S)-(4,4-difluorocyclohexyl)(3-((S)-3-methylpiperazin-1-yl)-2-(((3R,5R)-2-oxo-5-(trifluoromethyl)piperidin-3-yl)methyl)imidazo[1,2-b][1,2,4]triazin-6-yl)methyl)-1-ethyl-1H-pyrazole-5-carboxamide]
0.1 to 1 | 0.1 to 1 | CCn1nccc1C(=O)N[C@H](c1cn2nc(C[C@H]3C[C@@H](C(F)(F)F)CNC3=O)c(C3CCOC4(C3)CN(C(=O)OC(C)(C)C)C4)nc2n1)C1CCC(F)(F)CC1 (stereo partly drawn) [Compound 240, tert-butyl 8-(6-((S)-(4,4-difluorocyclohexyl)(1-ethyl-1H-pyrazole-5-carboxamido)methyl)-2-(((3R,5R)-2-oxo-5-(trifluoromethyl)piperidin-3-yl)methyl)imidazo[1,2-b][1,2,4]triazin-3-yl)-5-oxa-2-azaspiro[3.5]nonane-2-carboxylate]
< 0.1 | < 0.1 | CCn1nccc1C(=O)N[C@H](c1cn2nc(C[C@H]3C[C@@H](C(F)(F)F)CNC3=O)c(N3C[C@@H](C)O[C@H](C)C3)nc2n1)C1CCC(F)(F)CC1 [Compound 241, N—((S)-(4,4-difluorocyclohexyl)(3-((2R,6R)-2,6-dimethylmorpholino)-2-(((3R,5R)-2-oxo-5-(trifluoromethyl)piperidin-3-yl)methyl)imidazo[1,2-b][1,2,4]triazin-6-yl)methyl)-1-ethyl-1H-pyrazole-5-carboxamide]
< 0.1 | 0.1 to 1 | CCn1nccc1C(=O)N[C@H](c1cn2nc(C[C@H]3C[C@@H](C(F)(F)F)CNC3=O)c(N3CCN(C(C)(C)C)CC3)nc2n1)C1CCC(F)(F)CC1 [Compound 242, N—((S)-(3-(4-(tert-butyl)piperazin-1-yl)-2-(((3R,5R)-2-oxo-5-(trifluoromethyl)piperidin-3-yl)methyl)imidazo[1,2-b][1,2,4]triazin-6-yl)(4,4-difluorocyclohexyl)methyl)-1-ethyl-1H-pyrazole-5-carboxamide]
< 0.1 | > 1 | O=C(N[C@H](c1cn2nc(C[C@H]3C[C@@H](C(F)(F)F)CNC3=O)c(C3CCS(=O)(=O)CC3)nc2n1)C1CCC(F)(F)CC1)c1nonc1C1CC1 [Compound 243, 4-cyclopropyl-N—((S)-(4,4-difluorocyclohexyl)(3-(1,1-dioxidotetrahydro-2H-thiopyran-4-yl)-2-(((3R,5R)-2-oxo-5-(trifluoromethyl)piperidin-3-yl)methyl)imidazo[1,2-b][1,2,4]triazin-6-yl)methyl)-1,2,5-oxadiazole-3-carboxamide]
< 0.1 | 0.1 to 1 | CCn1nccc1C(=O)N[C@H](c1cn2nc(C[C@H]3C[C@@H](C(F)(F)F)CNC3=O)c(N3CCN(CC4CC4)CC3)nc2n1)C1CCC(F)(F)CC1 [Compound 244, N—((S)-(3-(4-(cyclopropylmethyl)piperazin-1-yl)-2-(((3R,5R)-2-oxo-5-(trifluoromethyl)piperidin-3-yl)methyl)imidazo[1,2-b][1,2,4]triazin-6-yl)(4,4-difluorocyclohexyl)methyl)-1-ethyl-1H-pyrazole-5-carboxamide]
< 0.1 | 0.1 to 1 | CCn1nccc1C(=O)N[C@H](c1cn2nc(C[C@H]3C[C@@H](C(F)(F)F)CNC3=O)c(N3CCCOCC3)nc2n1)C1CCC(F)(F)CC1 [Compound 245, N—((S)-(3-(1,4-oxazepan-4-yl)-2-(((3R,5R)-2-oxo-5-(trifluoromethyl)piperidin-3-yl)methyl)imidazo[1,2-b][1,2,4]triazin-6-yl)(4,4-difluorocyclohexyl)methyl)-1-ethyl-1H-pyrazole-5-carboxamide]
0.1 to 1 | > 1 | Cc1nccnc1C(=O)N[C@H](c1cn2nc(C[C@H]3C[C@@H](C(F)(F)F)CNC3=O)c(C3CCOCC3)nc2n1)C1CCC(F)(F)CC1 [Compound 246, N—((S)-(4,4-difluorocyclohexyl)(2-(((3R,5R)-2-oxo-5-(trifluoromethyl)piperidin-3-yl)methyl)-3-(tetrahydro-2H-pyran-4-yl)imidazo[1,2-b][1,2,4]triazin-6-yl)methyl)-3-methylpyrazine-2-carboxamide]
< 0.1 | 0.1 to 1 | CCn1nccc1C(=O)N[C@H](c1cn2nc(C[C@H]3C[C@@H](C(F)(F)F)CNC3=O)c(N3C[C@@H](C)O[C@@H](C)C3)nc2n1)C1CCC(F)(F)CC1 [Compound 247, N—((S)-(4,4-difluorocyclohexyl)(3-((2R,6S)-2,6-dimethylmorpholino)-2-(((3R,5R)-2-oxo-5-(trifluoromethyl)piperidin-3-yl)methyl)imidazo[1,2-b][1,2,4]triazin-6-yl)methyl)-1-ethyl-1H-pyrazole-5-carboxamide]
< 0.1 | > 1 | CCn1ncnc1C(=O)N[C@H](c1cn2nc(C[C@H]3C[C@@H](C(F)(F)F)CNC3=O)c(C3CCS(=O)(=O)CC3)nc2n1)C1CCC(F)(F)CC1 [Compound 248, N—((S)-(4,4-difluorocyclohexyl)(3-(1,1-dioxidotetrahydro-2H-thiopyran-4-yl)-2-(((3R,5R)-2-oxo-5-(trifluoromethyl)piperidin-3-yl)methyl)imidazo[1,2-b][1,2,4]triazin-6-yl)methyl)-1-ethyl-1H-1,2,4-triazole-5-carboxamide]
< 0.1 | 0.1 to 1 | O=C(N[C@H](c1cn2nc(C[C@H]3C[C@@H](C(F)(F)F)CNC3=O)c([C@H]3CCCOC3)nc2n1)[C@@H]1CCCC(F)(F)C1)c1nonc1C1CC1 [Compound 249]
< 0.1 | 0.1 to 1 | CCn1nccc1C(=O)N[C@H](c1cn2nc(C[C@H]3C[C@@H](C(F)(F)F)CNC3=O)c(C34CCOC(C3)C4)nc2n1)C1CCC(F)(F)CC1 [Compound 250, N—((S)-(3-(2-oxabicyclo[3.1.1]heptan-5-yl)-2-(((3R,5R)-2-oxo-5-(trifluoromethyl)piperidin-3-yl)methyl)imidazo[1,2-b][1,2,4]triazin-6-yl)(4,4-difluorocyclohexyl)methyl)-1-ethyl-1H-pyrazole-5-carboxamide]
< 0.1 | 0.1 to 1 | CCn1nccc1C(=O)N[C@H](c1cn2nc(C[C@H]3C[C@@H](C(F)(F)F)CNC3=O)c(C34COCC(C3)C4)nc2n1)C1CCC(F)(F)CC1 [Compound 253, N—((S)-(3-(3-oxabicyclo[3.1.1]heptan-1-yl)-2-(((3R,5R)-2-oxo-5-(trifluoromethyl)piperidin-3-yl)methyl)imidazo[1,2-b][1,2,4]triazin-6-yl)(4,4-difluorocyclohexyl)methyl)-1-ethyl-1H-pyrazole-5-carboxamide]

From US20260226068A1, “IMIDAZOTRIAZINE IL-17A MODULATORS AND USES THEREOF” (DICE ALPHA, INC., priority 2023, published 2026)
